This is an account of results in patent US6593358B1, “Thienyl-pyrazoles and their use for controlling pests” (Nihon Bayer Agrochem K.K., priority 1999, dated 2003).

In one data set the test system is Meloidogyne incognita. Briefly: Test against Meloidogyne spp. (soil pot test). The format is in vivo. To be noted: soil contaminated with Meloidogyne incognita, final concentration 50 ppm; tomato (Kurihara) in pots, greenhouse 4 weeks; from root knot index. The protocol:
Test Against Meloidogyne spp. (Soil Pot Test)
Preparation of Test Agent:
1 Part of the active compound is impregnated to 99 parts of pumice to obtain fine granules.
The active compound prepared as mentioned above is added to soil contaminated with Meloidogyne incognita to a final concentration of 50 ppm and then homogeneously mixed by stirring. Then a pot (1/5000 are) was filled with the soil. About 20 seeds of tomato (variety: Kurihara) were sown per pot. After cultivation in a greenhouse for 4 weeks, they were carefully pulled out not to damage the root and the root knot index and the controlling effect of the compound tested were determined as follows:
Degree of damage 0: No knot was formed (Complete control).
1: A few knots were formed.
2: Knots were formed to a medium extent.
3: Knots were formed to an intense extent.
4: Knots were formed to the most intense extent (which corresponds to non-treatment).
Based on the degree of damage acording to the aforementioned standard (0-4), the root knot index can be determined as follows (Equation 1) [formula]
The controlling effect which can be achieved by applying compounds according to the present invention can then be determined as follows (Equation 2): [formula]
The evaluation of the controlling effect towards nematodes is then done by connecting the values of the controlling effect with the following standards (a-d): […]

Each structure is given as a SMILES string.

In general, melting point refers to the temperature of the solid-liquid transition. In the case of `CCCCc1cc(-c2cccs2)n[nH]1` [Compound 82, 3-(2-thienyl)-5-n-butylpyrazole], the melting point lay within 47 to 48 °C. Also, in the data set on Meloidogyne incognita, the “Evaluation of controlling effect” value is “a (Controlling effect 100-71%)”.

In turn, `ClCCOc1cc(-c2cccs2)n[nH]1` displayed a melting point of 134 to 138 °C.

On to `Cc1cc(-c2cccs2)n[nH]1`, for which the melting point lay in the range of 133 to 135 °C.

For `Oc1cc(-c2cccs2)n[nH]1`, the melting point is 144 to 146 °C.

On to `CCCCCc1cc(-c2cccs2)n[nH]1` [Compound 83, 3-(2-thienyl)-5-n-pentylpyrazole], for which the melting point is 68 to 73 °C. Further, the “Evaluation of controlling effect” value in the data set on Meloidogyne incognita is listed as “a (Controlling effect 100-71%)”.

`CCCCCCc1cc(-c2cccs2)n[nH]1` returned a melting point of 53 to 55 °C.
